Measured values as given in US6361595B1, “Process for the preparation of pigment compositions” (Ciba Specialty Chemicals Corporation, priority 1999, dated 2002).
Where “and” joins values, the source holds several entries; their conditions need not be identical. Equal entries are not always repeated.

How the values were obtained:
[1] = system: mixed culture of Gram-positive cocci, Gram-negative cocci, Gram-positive rods and Gram-negative rods; assay: Microbial contamination of dried Pigment Yellow 65 powder (Example 2 procedure) after mixing filter cake with bacterial culture; format: cell-based, bacteria
Description: (§1) Susceptibility to microbial contamination is assessed according to the following procedure:
(§2) Microbial contamination is assessed using individual bacteria of the morphological types, Gram-positive cocci, Gram-negative cocci, Gram-positive rods and Gram-negative rods which are maintained on Nutrient Agar slopes. When required, each is cultured in Nutrient broth at 30° C. until an organism count of >10^8 colony-forming units (cfu) per milliliter (ml) is reached. The individual cultures are then mixed in equal proportions to provide a mixed culture which is then used immediately.
(§3) 10 mg of the sieved powder and one drop of sterile water are evenly spread on a Nutrient Agar plate with a glass spreader under aseptic conditions and the plate incubated at 30° C. for 48 hours, The number of bacterial colonies evident on each plate are then counted and expressed as the number of colony-forming units per gram (cfu/g).
(§4) 23.3 parts of acetic acid (100%) are added to a solution of 55 parts of acetoacet-o-anisidide dissolved in a solution of 25.5 parts of sodium hydroxide (47%) in 450 parts of water at a temperature of 0° C. The resultant slurry is reacted with 42.5 parts of o-nitro-p-anisidine previously diazotised with 45.4 parts of sodium nitrite (37%) and 56 parts of hydrochloric acid (36%) in the usual manner with simultaneous addition of sodium hydroxide solution (10%) to maintain pH 5.5-6.0. To the coupled slurry are then added 3 parts of dibutyl sebacate and 1 part of dimethylbenzyl-C12-14alkylammonium chloride (100% active) and the mixture is heated to a temperature of 100° C. and maintained at this temperature for one hour. The product is then filtered and washed with water under vacuum to remove soluble salts. The filter cake (still under vacuum suction) is mixed with a bacterial culture (10 ml of culture diluted to 100 ml with water) and vacuum suction is maintained until no further liquid emanates from the filter cake. The filter cake, without further washing, is then dried and converted to a powder by grinding. The powder is then passed through a 150 micron sieve.
The procedure described in Example 2 is repeated, but varying the type of biocide and amount of biocide used.
The procedure described in Example 2 is repeated, but varying the type of biocide and amount of biocide used and omitting the DBS.

[2] = system: mixed culture of Gram-positive cocci, Gram-negative cocci, Gram-positive rods and Gram-negative rods; assay: Microbial contamination of dried Pigment Yellow 74 powder (Example 1 procedure) after mixing filter cake with bacterial culture; format: cell-based, bacteria; details: PY74, 3 parts dibutyl sebacate, plate 30° C. 48 hours
Description: as §1, §2
as §4, with “(80%)” for “(100%)”, “p-nitro-o-anisidine” for “o-nitro-p-anisidine”, “cake(still” for “cake (still”, “water)and” for “water) and”
The procedure described in Example 1 is repeated, but varying the type of biocide and amount of biocide used. The procedure for determining the extent of microbial contamination is as follows:
as §3

[3] = system: mixed culture of Gram-positive cocci, Gram-negative cocci, Gram-positive rods and Gram-negative rods; assay: Microbial contamination of dried Pigment Yellow 13 powder (Example 5 procedure) after mixing filter cake with bacterial culture; format: cell-based, bacteria; details: PY13, no DBS
Description: as §1, §2, §3
A solution of 8.9 parts of acetic acid (100%) and 15 parts hydrochloric acid (36%) in 100 parts water are added to a solution of 63 parts of acetoacet-m-xylidide dissolved in a solution of 25.2 parts of sodium hydroxide (50%) in 676 parts of water at a temperature of 20° C. The resultant slurry is reacted with 36.9 parts of a previously tetrazotised solution of 3,3′-dichlorobenzidine, with simultaneous addition of sodium hydroxide solution (10%) to maintain pH 4.5-5.5. […] The product is then filtered and washed with water under vacuum to remove soluble salts. The filter cake (still under vacuum suction) is mixed with a bacterial culture (10 ml of culture diluted to 100 ml with water) and vacuum suction is maintained until no further liquid emanates from the filter cake. The filter cake, without further washing, is then dried and converted to a powder by grinding. The powder is then passed through a 150 micron sieve.

[4] = Colour strength on storage of pigment powder, tested in alkyd paint system; format: physicochemical
Description: The dried pigments are incorporated in a conventional manner into an alkyd paint system (SORBAL®P470, an alkyd resin ex DSM resins Ltd. having a solids content of 70%, white spirit, pigment and driers solution).
The dried powders are each divided into two portions. One portion is tested in the paint system immediately after drying. […] The tinting strengths are assessed visually and instrumentally.
The values correspond to the instrumentally-measured colour strength for the same pigment content in the paint.

[5] = PY65, omitting the DBS, 0.5 parts biocide
[6] = PY65, omitting the DBS, 1.0 parts biocide
[7] = PY65, omitting the DBS, 3.0 parts biocide
[8] = PY65, omitting the DBS, 5.0 parts biocide
[9] = PY65, with 3 parts dibutyl sebacate, 0.5 parts biocide
[10] = PY65, with 3 parts dibutyl sebacate, 1.0 parts biocide
[11] = PY65, with 3 parts dibutyl sebacate, 3.0 parts biocide
[12] = PY65, with 3 parts dibutyl sebacate, 5.0 parts biocide

| loss of strength ([4]; initial versus last storage time at ambient temperature) | amount of Pigment required, 3 weeks ([4]; powder stored at ambient temperature 3 weeks) | amount of Pigment required, 6 weeks ([4]; powder stored at ambient temperature 6 weeks) | colour strength, initial ([4]; powder tested immediately after drying, instrumentally-measured colour strength) | Compound | microbial contamination, colony-forming units per gram [1, 5] | microbial contamination, colony-forming units per gram [1, 6] | microbial contamination, colony-forming units per gram [1, 7] | microbial contamination, colony-forming units per gram [1, 8] | microbial contamination, colony-forming units per gram [1, 9] | microbial contamination, colony-forming units per gram [1, 10] | microbial contamination, colony-forming units per gram [1, 11] | microbial contamination, colony-forming units per gram [1, 12] | microbial contamination, colony-forming units per gram ([2]; 0.5 parts biocide) | microbial contamination, colony-forming units per gram ([2]; 1.0 parts biocide) | microbial contamination, colony-forming units per gram ([2]; 3.0 parts biocide) | microbial contamination, colony-forming units per gram ([2]; 5.0 parts biocide) | microbial contamination, colony-forming units per gram ([3]; 0.5 parts biocide) | microbial contamination, colony-forming units per gram ([3]; 1.0 parts biocide) | microbial contamination, colony-forming units per gram ([3]; 3.0 parts biocide) | microbial contamination, colony-forming units per gram ([3]; 5.0 parts biocide) |
| --- | --- | --- | --- | --- | --- | --- | --- | --- | --- | --- | --- | --- | --- | --- | --- | --- | --- | --- | --- | --- |
|  |  |  |  | Tetrakishydroxymethylphosphonium sulphate [THPS] | >10^5 cfu/g | >10^5 cfu/g | >10^5 cfu/g | >10^5 cfu/g | >10^5 cfu/g | >10^5 cfu/g | >10^5 cfu/g | >10^5 cfu/g | >10^5 cfu/g | >10^5 cfu/g | >10^5 cfu/g | >10^5 cfu/g | >10^4 cfu/g | >10^4 cfu/g | >10^4 cfu/g | >10^4 cfu/g |
|  |  |  |  | Methylbenzyl-di-C16-18-alkylammonium chloride [Example M2HTB] |  |  |  |  |  |  |  |  | >10^4 cfu/g | 0 cfu/g | 0 cfu/g | 0 cfu/g |  |  |  |  |
|  |  |  |  | Cn1sccc1=O [MIT, Methylisothiazolin-3-one] | >10^5 cfu/g | >10^5 cfu/g | >10^5 cfu/g | >10^5 cfu/g | >10^4 cfu/g | >10^3 cfu/g | >10^3 cfu/g | 0 cfu/g | 8.0 × 10^3 cfu/g | 1.0 × 10^4 cfu/g | 3.0 × 10^3 cfu/g | 1.0 × 10^4 cfu/g | >10^4 cfu/g | 4.0 × 10^3 cfu/g |  | 9.0 × 10^2 cfu/g |
| 36 and 26 and 42 | 105 and 104 | 105 and 108 | 141 and 134 and 146 | COc1cc([N+](=O)[O-])ccc1/N=N/C(C(C)=O)C(=O)Nc1ccccc1OC (centres unmarked) [C.I. Pigment Yellow 74] |  |  |  |  |  |  |  |  |  |  |  |  |  |  |  |  |
|  |  |  |  | CCCCCCCCn1sccc1=O [OTW, n-Octylisothiazolin-3-one] | >10^4 cfu/g | >10^4 cfu/g | >10^3 cfu/g | >10^3 cfu/g | >10^4 cfu/g | >10^4 cfu/g | >10^4 cfu/g | 0 cfu/g | >10^4 cfu/g | 2.0 × 10^4 cfu/g | >10^4 cfu/g | 1.4 × 10^3 cfu/g | >10^4 cfu/g | 5.0 × 10^3 cfu/g | 0 cfu/g | 0 cfu/g |
|  |  |  |  | O=c1[nH]sc2ccccc12 [LV, 1,2-Benzisothiazolin-3-one] | >10^4 cfu/g | >10^4 cfu/g | >10^4 cfu/g | >10^4 cfu/g | >10^4 cfu/g | >10^4 cfu/g | >10^4 cfu/g | >10^4 cfu/g | >10^5 cfu/g | >10^5 cfu/g | >10^5 cfu/g | >10^5 cfu/g | 3.0 × 10^3 cfu/g | 4.0 × 10^2 cfu/g | 1.0 × 10^2 cfu/g | 6.0 × 10^2 cfu/g |
|  |  |  |  | Trimethyl-di-C12-14-alkylammonium chloride [Example C-35] |  |  |  |  |  |  |  |  | >10^4 cfu/g | 4.5 × 10^3 cfu/g | 0 cfu/g | 0 cfu/g |  |  |  |  |
|  |  |  |  | CCCCn1sc2ccccc2c1=O [DN, n-Butylbenzisothiazolin-3-one] |  |  |  |  | >10^4 cfu/g | >10^4 cfu/g | >10^4 cfu/g | 8.0 × 10^2 cfu/g | >10^4 cfu/g | >10^4 cfu/g | >10^3 cfu/g | 0 cfu/g |  |  |  |  |
|  |  |  |  | Benzyldimethyl-C16-18-alkylammonium chloride [DMHTB] |  |  |  |  |  |  |  |  | >10^4 cfu/g | 0 cfu/g | 0 cfu/g | 0 cfu/g |  |  |  |  |
|  |  |  |  | Dimethyl-di-C12-14-alkylammonium chloride [Example 2C-75] |  |  |  |  |  |  |  |  | 8.0 × 10^4 cfu/g | 0 cfu/g | 0 cfu/g | 0 cfu/g |  |  |  |  |
|  |  |  |  | Methylbis-(2-hydroxyethyl)-C12-14-alkylammonium chloride [EthO-12] |  |  |  |  |  |  |  |  | >10^4 cfu/g | 0 cfu/g | 0 cfu/g | 0 cfu/g |  |  |  |  |
